# Reference: patent US20100168451A1, “PREPARATIVE METHOD OF DIHYDROCUCURBITACIN F-25-O-ACETATE AND THE USE THEREOF IN THE MANUFACTURE OF MEDICAMENTS FOR TREATING CANCERS” (priority 2007, published 2010)
# Like-named read-outs stand apart in the source and are kept apart here.
# What was measured:
# [1] = system: SGC-7901 human gastric cancer cell strain; assay: modified MTT in vitro screening, SGC-7901; format: cell-based
# Text: (§1) 1. Screening research in vitro, employing modified MTT of anticancer substance activity. Cancer Cell Strain: [table]
# [2] = system: SMMC-7721 human hepatic cancer cell strain; assay: modified MTT in vitro screening, SMMC-7721; format: cell-based
# Text: as §1
# [3] = system: PC-3 human prostate cancer cell strain; assay: modified MTT in vitro screening, PC-3; format: cell-based
# Text: as §1
# mouse Lewis lung cancer = assay: curative effect on mouse Lewis lung cancer in vivo
# Method: (§2) After inoculating Kunming murine for H22 hepatic cancer and murine Lewis lung cancer, three kinds of preparation, i.e., suspension, emulsion, and lyophilized preparation, are administrated in three different ways of administration comprising gastric perfusion, intraperitoneal injection and intravenous injection, and the administration dose is high, middle and low respectively. Then the curative effect is compared with positive control group and the tumour inhibition efficiency is calculated, and the results are shown as follows: […]
# [4] = system: HL60 human leukemia cell strain; assay: modified MTT in vitro screening, HL60; format: cell-based
# Text: as §1
# [5] = system: A549 human lung cancer cell strain; assay: modified MTT in vitro screening, A549; format: cell-based; conditions: for IC50: A549
# Text: as §1
# [6] = system: Bel-7402 human hepatic cancer cell strain; assay: modified MTT in vitro screening, Bel-7402; format: cell-based
# Text: as §1
# [7] = system: GLC-15 human lung cancer cell strain; assay: modified MTT in vitro screening, GLC-15; format: cell-based
# Text: as §1
# [8] = system: HEP-2 human laryngeal cancer cell strain; assay: modified MTT in vitro screening, HEP-2; format: cell-based
# Text: as §1
# [9] = mouse, in vivo
# Method: as §2
# [10] = animal body weight, Lewis lung cancer mice; format: in vivo, mouse
# Text: After inoculating Kunming murine for H22 hepatic cancer and murine Lewis lung cancer, three kinds of preparation, i.e., suspension, emulsion, and lyophilized preparation, are administrated in three different ways of administration comprising gastric perfusion, intraperitoneal injection and intravenous injection, and the administration dose is high, middle and low respectively.
# mouse H22 liver cancer = assay: curative effect on mouse H22 liver cancer in vivo
# Method: as §2
# [11] = Homo sapiens, read-out: Ic 50 for the growth of tumour cells
# [12] = emulsion, intravenous, 5 mg/kg/d ivx10qd
# [13] = emulsion, intravenous, 10 mg/kg/d ivx10qd
# [14] = emulsion, intravenous, 15 mg/kg/d ivx10qd
# [15] = mouse, in vivo, iv, 5 mg/kg/day
# [16] = mouse, in vivo, iv, 10 mg/kg/day
# [17] = mouse, in vivo, iv, 15 mg/kg/day
# [18] = lyophilized preparation, intravenous, 5 mg/kg/d ivx10qd
# [19] = lyophilized preparation, intravenous, 10 mg/kg/d ivx10qd
# [20] = lyophilized preparation, intravenous, 15 mg/kg/d ivx10qd
# [21] = suspension, gastric perfusion, 30 mg/kg/d igx10qd
# [22] = suspension, gastric perfusion, 60 mg/kg/d igx10qd
# [23] = suspension, gastric perfusion, 90 mg/kg/d igx10qd
# [24] = suspension, intraperitoneal administration (igx10qd), 30 mg/kg/d
# [25] = suspension, intraperitoneal administration (igx10qd), 60 mg/kg/d
# [26] = suspension, intraperitoneal administration (igx10qd), 90 mg/kg/d
# [27] = Table VI, 7 mg/kg/d Ipx2, the first, third days
compound,measurement,setting,value
"CC(=O)OC(C)(C)CCC(=O)[C@](C)(O)[C@H]1[C@H](O)C[C@@]2(C)[C@@H]3CC=C4[C@@H](C[C@H](O)[C@@H](O)C4(C)C)[C@]3(C)C(=O)C[C@]12C [Curcurbitacin IIa, dihydrocucurbitacin F-25-O-acetate]",IC50,[1]; [11],8.71 µg/mL
same,IC50,[2]; [11],22.3 µg/mL
same,IC50,[3]; [11],10.1 µg/mL
same,Inhibition efficiency,mouse Lewis lung cancer; [12],40.76
same,Tumour weight (g) X ± SD,mouse Lewis lung cancer; [12],1.69 ± 0.11 g
same,Inhibition efficiency,mouse Lewis lung cancer; [13],47.37
same,Tumour weight (g) X ± SD,mouse Lewis lung cancer; [13],1.50 ± 0.14 g
same,Inhibition efficiency,mouse Lewis lung cancer; [14],59.30
same,Tumour weight (g) X ± SD,mouse Lewis lung cancer; [14],1.16 ± 0.16 g
same,Tumour weight (g) X ± SD,"mouse Lewis lung cancer; lyophilized preparation, 5 mg/kg/d ivx10qd",1.56 ± 0.14 g
same,Tumour weight (g) X ± SD,"mouse Lewis lung cancer; lyophilized preparation, 10 mg/kg/d ivx10qd",1.34 ± 0.18 g
same,Tumour weight (g) X ± SD,"mouse Lewis lung cancer; lyophilized preparation, 15 mg/kg/d ivx10qd",1.20 ± 0.20 g
same,Inhibition efficiency,"mouse Lewis lung cancer; lyophilized preparation, hypodermic inoculation, 5 mg/kg/d ivx10qd",36.33
same,Inhibition efficiency,"mouse Lewis lung cancer; lyophilized preparation, hypodermic inoculation, 10 mg/kg/d ivx10qd",45.31
same,Inhibition efficiency,"mouse Lewis lung cancer; lyophilized preparation, hypodermic inoculation, 15 mg/kg/d ivx10qd",51.20
same,IC50,"[4]; Homo sapiens, HL-60, read-out: Ic 50 for the growth of tumour cells",43.2 µg/mL
same,IC50,"[5]; human lung cancer cells, read-out: Ic 50 for growth of the human lung cancer cells",1.5 µg/mL
same,IC50,[5]; [11],1.5 µg/mL
same,IC50,[6]; [11],> 100 µg/mL
same,IC50,[7]; [11],14.6 µg/mL
same,IC50,"[8]; Homo sapiens, HEp-2, read-out: Ic 50 for the growth of tumour cells",15.8 µg/mL
same,Animal body weight (g) Start,[9]; 30 mg/kg/day,19.0 g
same,Animal body weight (g) end,[9]; 30 mg/kg/day,26.0 g
same,Animal body weight (g) Start,[9]; 60 mg/kg/day,19.3 g
same,Animal body weight (g) end,[9]; 60 mg/kg/day,26.3 g
same,Animal body weight (g) Start,[9]; 90 mg/kg/day,19.1 g
same,Animal body weight (g) end,[9]; 90 mg/kg/day,25.7 g
same,Animal body weight (g) end,"[9]; iv, 10 mg/kg/day",25.9 g
same,Animal body weight (g) Start,"[10]; mouse, in vivo, 5 mg/kg/day",18.1 g
same,Animal body weight (g) end,"[10]; mouse, in vivo, 5 mg/kg/day",20.5 g
same,Animal body weight (g) Start,"[10]; mouse, in vivo, 10 mg/kg/day",17.7 g
same,Animal body weight (g) end,"[10]; mouse, in vivo, 10 mg/kg/day",21.1 g
same,Animal body weight (g) Start,"[10]; mouse, in vivo, 15 mg/kg/day",18.0 g
same,Animal body weight (g) end,"[10]; mouse, in vivo, 15 mg/kg/day",20.7 g
same,Animal body weight (g) Start,[10]; [15],19.3 g
same,Animal body weight (g) end,[10]; [15],22.4 g
same,Animal body weight (g) Start,[10]; [16],19.1 g
same,Animal body weight (g) end,[10]; [16],22.9 g
same,Animal body weight (g) Start,[10]; [17],19.5 g
same,Animal body weight (g) end,[10]; [17],22.1 g
same,Inhibition efficiency,mouse H22 liver cancer; [12],32.38
same,Tumour weight (g) X ± SD,mouse H22 liver cancer; [12],2.13 ± 0.20 g
same,Inhibition efficiency,mouse H22 liver cancer; [13],44.12
same,Tumour weight (g) X ± SD,mouse H22 liver cancer; [13],1.76 ± 0.08 g
same,Inhibition efficiency,mouse H22 liver cancer; [14],55.02
same,Tumour weight (g) X ± SD,mouse H22 liver cancer; [14],1.48 ± 0.11 g
same,Inhibition efficiency,mouse H22 liver cancer; [18],31.1
same,Tumour weight (g) X ± SD,mouse H22 liver cancer; [18],2.06 ± 0.18 g
same,Inhibition efficiency,mouse H22 liver cancer; [19],39.13
same,Tumour weight (g) X ± SD,mouse H22 liver cancer; [19],1.82 ± 0.19 g
same,Inhibition efficiency,mouse H22 liver cancer; [20],46.15
same,Tumour weight (g) X ± SD,mouse H22 liver cancer; [20],1.61 ± 0.18 g
same,Inhibition efficiency,mouse H22 liver cancer; [21],27.13
same,Tumour weight (g) X ± SD,mouse H22 liver cancer; [21],2.31 ± 0.21 g
same,Inhibition efficiency,mouse H22 liver cancer; [22],32.09
same,Tumour weight (g) X ± SD,mouse H22 liver cancer; [22],2.14 ± 0.20 g
same,Inhibition efficiency,mouse H22 liver cancer; [23],38.17
same,Tumour weight (g) X ± SD,mouse H22 liver cancer; [23],1.96 ± 0.16 g
same,Inhibition efficiency,mouse H22 liver cancer; [24],36.07
same,Tumour weight (g) X ± SD,mouse H22 liver cancer; [24],1.95 ± 0.12 g
same,Inhibition efficiency,mouse H22 liver cancer; [25],51.05
same,Tumour weight (g) X ± SD,mouse H22 liver cancer; [25],1.49 ± 0.12 g
same,Inhibition efficiency,mouse H22 liver cancer; [26],57.05
same,Tumour weight (g) X ± SD,mouse H22 liver cancer; [26],1.31 ± 0.12 g
"N.N.[Cl][Pt][Cl] [DDP(Cisplatin), Cisplatin, reference compound]",Ic 50 for the growth of tumour cells,[1],0.89 µg/mL
same,Ic 50 for the growth of tumour cells,[2],0.21 µg/mL
same,Ic 50 for the growth of tumour cells,[3],1.85 µg/mL
same,Inhibition efficiency,mouse Lewis lung cancer; [27],92.98
same,Tumour weight (g) X ± SD,mouse Lewis lung cancer; [27],0.172 ± 0.06 g
same,Ic 50 for the growth of tumour cells,[4],0.695 µg/mL
same,Ic 50 for growth of the human lung cancer cells,[5]; human lung cancer cells,1.6 µg/mL
same,Ic 50 for the growth of tumour cells,[6],2.31 µg/mL
same,Ic 50 for the growth of tumour cells,[7],1.72 µg/mL
same,Ic 50 for the growth of tumour cells,[8]; HEP-2,0.3 µg/mL
same,Animal body weight (g) end,"[10]; Table VI, 7 mg/kg/d Ipx2, the first, third days, end",18.1 g
same,Animal body weight (g) Start,"[10]; Table VI, 7 mg/kg/d Ipx2, the first, third days, start",18.4 g
